Source: paper PMC8348996, “pH-sensitive dual drug loaded janus nanoparticles by oral delivery for multimodal analgesia” (Journal of Nanobiotechnology, 2021)
Read-outs that look alike come from different tables or passages of the source.

Tests used:
[1] = test system: Caco-2/HT29-MTX/Raji monolayers; assay: Trans-monolayer transport; type: in vitro ADME; conditions: Caco2-HT29/MTX-Raji cell model, AP to BL, 4 h
Description: (§1) Caco-2, Caco-2/HT29-MTX (7/3), and Caco-2/HT29-MTX/Raji cell models were established for the trans-monolayer transport study, as previously described. The assay was carried out from the AP side (pH 6.5) to the BL side (pH 7.4) using HBSS-HEPES buffer. […] At 0, 0.5, 1, 2, and 4 h, a certain amount of sample was taken from the basolateral compartment, and the same volume of HBSS-HEPES buffer was added.

Caco-2 monolayers = assay: Trans-monolayer transport; type: in vitro ADME; conditions: Caco-2 cell model, AP to BL, 4 h
Description: as §1

[2] = test system: Caco-2/HT29-MTX monolayers; assay: Trans-monolayer transport; type: in vitro ADME; conditions: Caco2-HT29/MTX cell model, AP to BL, 4 h
Description: as §1

[3] = Lymphatic transport in mesenteric lymph-cannulated rats; type: in vivo, SD rats
Description: The methods of mesenteric lymphatic intubation were based on previous studies. Briefly, SD rats (300–350 g) were given 2 mL peanut oil via gavage 1 h before administration to induce lymphoid production. One hour later, the animals were anesthetized via intraperitoneal injection of 50 mg·kg^−1 pentobarbital sodium. The rats were placed in the supine position on the ventral side and their limbs were fixed. A midline abdominal incision (approximately 4 cm long) was made at 2/3 of the line connecting the xiphoid and pubic symphysis. […] The trunk of the mesenteric lymphatic vessels (approximately 1 cm) was then separated. A 4-mm PE-25 pipe with a PE-50 hose was connected, the joint of each pipe was fully fixed, and the pipe was filled with 1% EDTA-2Na. […] A small incision was made in the mesenteric lymphatic vessel, and the PE-25 tube end was intubated. When the lymphatic fluid completely filled the tube and drained smoothly, the intubation site was fixed. After resuscitation, the rats were allowed to drink 5% glucose solution freely and recover overnight.

[4] = In vitro release behavior by dialysis in SGF (pH 1.2) and PBS (pH 7.4); type: physicochemical
Description: The release behavior of αCT and Res in vitro was investigated through dialysis. […] The release medium was SGJ (pH 1.2) containing 2% sodium dodecyl sulfate (w/v) and 30 mL PBS (pH 7.4). The release behavior of drugs from JNP was studied under the conditions of 37 ± 0.5 °C and a rotating speed of 100 rpm. At fixed time points (0, 0.25, 0.5, 0.75, 1.0, 1.5, and 2.0 h in SGJ; 0, 0.25, 0.5, 1.0, 2,0, 4.0, 6.0, 8.0, 10.0, 12.0, and 24.0 h in PBS), 1 mL of release medium was removed, and a blank release medium with the same volume and temperature was supplemented. The samples were filtered through a 0.22-μm microporous membrane, and the supernatant was obtained after high-speed centrifugation. The αCT and Res content were determined using HPLC. The cumulative release percentage was calculated, and a release curve was obtained. The formula for cumulative drug release is shown in the following equation, where Ct is the content of two drugs at each sampling point, V0 is the volume of the release medium, V is the sampling volume, and M0 is the initial dosage:3 Cumulative release%=Ct×V0+∑n=1t-1C×V/M0×100%

[5] = SPIP, n = 3
Description: SPIP was performed to determine the absorption and enterocytic uptake of the nanoparticles. The abdominal cavity of SD rats were opened along the midline of the abdomen to expose the intestinal tissue. The jejunum, ileum, duodenum, and colon segments were measured, and incisions were made at both ends of these segments. Both ends of the incision were intubated and fixed using ligation. The wounds were covered with an absorbent cotton soaked in normal saline and maintained at 37 °C. […] After 60 min, the jejunum, ileum, duodenum, and colon were dehydrated to create frozen Sects. (10 μm). These sections were observed using CLSM, and the fluorescence intensity of each section was quantified.

trypsin = target: T1, trypsin (Sus scrofa, UniProt P00761); assay: Stability in SIF containing 0.2% trypsin (residual drug content); type: in vitro ADME; conditions: SIF with 0.2% trypsin, 37 °C, first hour
T1 construct: purchased Gibco Invitrogen Co. (Carlsbad, USA)
T1 sequence (P00761 9-231): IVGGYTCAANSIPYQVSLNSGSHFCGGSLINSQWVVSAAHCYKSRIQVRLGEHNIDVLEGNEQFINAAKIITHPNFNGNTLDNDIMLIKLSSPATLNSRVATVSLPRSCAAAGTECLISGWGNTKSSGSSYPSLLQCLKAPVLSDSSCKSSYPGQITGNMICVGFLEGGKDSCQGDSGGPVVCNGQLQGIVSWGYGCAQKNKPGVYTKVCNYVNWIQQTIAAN
Description: The effect of trypsin on the stability of αCT/Res-JNPs was also evaluated. αCT/Res-JNPs were centrifuged at 20,000 rpm at 4 °C for 30 min, and then resuspended in SIF. The control group was treated with αCT solution and Res solution. SIFs and trypsin (0.2%, w/v) were mixed at 37 °C for 2 h. At predetermined time points (15, 30, 60, and 120 min), HCl solution (0.1 M) was added to terminate the trypsin activity. Subsequently, dichloromethane was added to dissolve the organic phase contained in the JNP solution. The pH of the solution was then adjusted to 4.0 using hydrochloric acid to dissolve the internal aqueous phase of the JNP. Subsequently, samples were collected, and the contents of residual αCT and Res in the JNP samples were analyzed via HPLC.

[6] = humans and animals; cited from earlier work
in vivo = assay: in vivo; parameters: species or system SD rats
Description: SD rats fasted but drank water freely for 24 h before administration. The dosage of JNP group was 50 µg·kg ^−1 (calculated using αCT), and the other groups were converted according to the ratio of their drug loading to αCT. After intragastric administration, blood samples were collected at 0.25, 0.5, 1, 4, 8, 12, and 24 h. […] PKSolver software (V2.0, China Pharmaceutical University, China) was used to process the data, compare the blood PK parameters of each group after administration, and generate the drug concentration–time curve.

Caco-2 cells [7] = assay: Mechanism of cell uptake with specific endocytosis inhibitors (flow cytometry); type: cell-based; conditions: inhibitor 0.5 h, then FITC-αCT-JNP or FITC-αCT/Res-JNP 2 h; uptake without inhibitor = 100%
Description: The mechanism of cell uptake was also investigated. Caco-2 cells in the logarithmic growth phase were seeded in 6-well plates at 3 × 10^5 cells/well and incubated for 48 h. Chlorpromazine (10 μg/mL), genistein (54 μg/mL), amiloride (12 μg/mL), and nocodazole (300 μg/mL) were added to the individual wells as inhibitors and were incubated for 0.5 h. FITC-αCT-JNP and FITC-αCT/Res-JNP were then added and the wells were incubated for another 2 h. The cells were then collected using trypsin and centrifuged at 1000 rpm for 5 min. Cells without any inhibitors were used as controls. Fluorescence intensity was detected using flow cytometry (FACSJazz, BD, USA).

Caco-2 cells [8] = assay: Cellular uptake of FITC-αCT observed by CLSM; type: cell-based; conditions: 6 h incubation, 1:20 dilution
Description: (§2) Cell culture was carried out according to previously described procedures. HT-29/MTX and Caco-2 cells were seeded into 24-well plates at a density of 1 × 10^5 cells/well and 6 × 10^4 cells/well, respectively. After the cells adhered onto each well, the culture medium was discarded, and three types of samples (FITC-αCT, FITC-αCT-JNP, or FITC-αCT/Res-JNP) at 1:20 dilutions were added. After 6 h, the liquid in the wells was discarded, and the cells were washed with PBS. Each well was fixed with 4% (v/v) paraformaldehyde (0.5 mL) for 20 min, and rinsed with PBS. The cells were then incubated with 0.1% Triton X-100 for 10 min to permeabilize the cell membrane, and then incubated with DAPI for 10 min. After sealing, it was observed using CLSM.

HT29/MTX cells = assay: Cellular uptake of FITC-αCT observed by CLSM; type: cell-based; conditions: 6 h incubation, 1:20 dilution
Description: as §2

animal models = conditions: cited from earlier work
[9] = PBS pH 7.4, time point not stated
[10] = Sprague-Dawley, rat, in vivo, po
[11] = rats, intragastric, 50 µg·kg^−1 as αCT, plasma FITC-αCT, n = 5

Oc1ccc(/C=C/c2cc(O)cc(O)c2)cc1 [Res, Resveratrol]
cumulative transport [1]: approximately 14% | cumulative transport of Res (Caco-2 monolayers): approximately 14% | cumulative transport [2]: approximately 6% | time after which Res was no longer detected in lymph [3]: 4 h | release of Res in PBS [4, 9]: 86.71% | release rate of Res ([4]; SGF pH 1.2 with 2% sodium dodecyl sulfate, within 1 h): 93.76% | Ka of Res ([5]; colon): 1.01 ± 0.26 × 10^–2 min^−1 | Peff of Res ([5]; colon): 1.60 ± 0.44 × 10^–3 cm·min^−1 | Ka of Res ([5]; duodenum): 0.99 ± 0.11 × 10^–2 min^−1 | Peff of Res ([5]; duodenum): 1.58 ± 0.18 × 10^–3 cm·min^−1 | Ka of Res ([5]; ileum): 1.91 ± 0.66 × 10^–2 min^−1 | Peff of Res ([5]; ileum): 3.26 ± 1.26 × 10^–3 cm·min^−1 | Ka of Res ([5]; jejunum): 1.55 ± 0.26 × 10^–2 min^−1 | Peff of Res ([5]; jejunum): 2.57 ± 0.46 × 10^–3 cm·min^−1 | residual amount of Res (trypsin): 47.23% | oral bioavailability [6]: almost zero | AUC(0-t) (in vivo; [10]): 84.6 ± 3.8 ng·h/mL | Cmax (in vivo; [10]): 92.1 ± 8 ng/mL | MRT last (in vivo; [10]): 1.56 ± 0.52 h | half-life (in vivo; [10]): 1.09 ± 0.07 h | Tmax (in vivo; Sprague-Dawley, rat, in vivo, po, time of peak concentration of Res, rats, intragastric): 0.167 h | AUMCt of Res (in vivo; rats, intragastric, plasma Res, n = 5): 118.18 ± 19.08 ng/ml*h^2

N=C(N)NC(=O)c1nc(Cl)c(N)nc1N [amiloride]
effect of endocytosis inhibitor on uptake rate of JNP by Caco-2 cells (Caco-2 cells [7]): significantly reduced the uptake rate of JNP

CN(C)CCCN1c2ccccc2Sc2ccc(Cl)cc21 [chlorpromazine]
effect of endocytosis inhibitor on uptake rate of JNP by Caco-2 cells (Caco-2 cells [7]): significantly reduced the uptake rate of JNP

O=c1c(-c2ccc(O)cc2)coc2cc(O)cc(O)c12 [genistein]
effect of endocytosis inhibitor on uptake rate of JNP by Caco-2 cells (Caco-2 cells [7]): did not significantly inhibit the cellular uptake of JNP

COC(=O)Nc1nc2ccc(C(=O)c3cccs3)cc2[nH]1 [nocodazole]
effect of endocytosis inhibitor on uptake rate of JNP by Caco-2 cells (Caco-2 cells [7]): did not significantly inhibit the cellular uptake of JNP

FITC-αCT: αCT labeled with fluorescein isothiocyanate (FITC)
cumulative transport [1]: approximately 4% | cumulative transport of FITC-αCT (Caco-2 monolayers): approximately 3% | cumulative transport [2]: approximately 4% | cellular uptake of FITC-αCT (green fluorescence, CLSM) (Caco-2 cells [8]): no obvious green fluorescence | cellular uptake of FITC-αCT (green fluorescence, CLSM) (HT29/MTX cells): no obvious green fluorescence

α-Cobrotoxin [αCT]
time after which αCT was no longer detected in lymph [3]: 6 h | release of αCT in PBS [4, 9]: 67.89% | cumulative release of αCT ([4]; SGF pH 1.2, 2 h, 37 °C): approximately 40.17% | Ka of αCT ([5]; colon): 0.85 ± 0.14 × 10^–2 min^−1 | Peff of αCT ([5]; colon): 1.34 ± 0.23 × 10^–3 cm·min^−1 | Ka of αCT ([5]; duodenum): 0.81 ± 0.11 × 10^–2 min^−1 | Peff of αCT ([5]; duodenum): 1.27 ± 0.19 × 10^–3 cm·min^−1 | Ka of αCT ([5]; ileum): 0.91 ± 0.03 × 10^–2 min^−1 | Peff of αCT ([5]; ileum): 1.44 ± 0.05 × 10^–3 cm·min^−1 | Ka of αCT ([5]; jejunum): 0.98 ± 0.05 × 10^–2 min^−1 | Peff of αCT ([5]; jejunum): 1.56 ± 0.10 × 10^–3 cm·min^−1 | residual amount of αCT (trypsin): 25.60% | t1/2 of αCT (in vivo; rats, intragastric): 0.17 ± 0.03 h | time of peak concentration of αCT (in vivo; rats, intragastric): about 30 min | AUCt of αCT (in vivo; [11]): 67.65 ± 17.91 ng·h/mL | AUMCt of αCT (in vivo; [11]): 112.44 ± 12.97 ng/ml*h^2 | Cmax of αCT (in vivo; [11]): 26.85 ± 3.00 ng/mL | Tmax of αCT (in vivo; [11]): 0.5 h | t1/2β of αCT (in vivo; [11]): 2.69 ± 0.36 h | effect on pain sensitivity (animal models; high dose 100 μg·kg^−1, intraperitoneal injection): significantly enhance pain sensitivity | effect on pain threshold and action ability (animal models; low dose, animal models): improve the pain threshold and action ability
